In paper PMC8453635, “Piperidine Azasugars Bearing Lipophilic Chains: Stereoselective Synthesis and Biological Activity as Inhibitors of Glucocerebrosidase (GCase)” (The Journal of Organic Chemistry, 2021):

The molecules below were run against T1, β-mannosidase (Homo sapiens, UniProt O00462) (assay: Human lysosomal glycosidase selectivity screening (leukocyte homogenate)). Conditions: 1 mM, read-out: percentage of inhibition, β-Man.
T1 construct: from leukocytes isolated from healthy donors (controls); from tissue; host or cells: leukocytes from healthy donors, sonicated homogenate
T1 sequence (O00462 18-879): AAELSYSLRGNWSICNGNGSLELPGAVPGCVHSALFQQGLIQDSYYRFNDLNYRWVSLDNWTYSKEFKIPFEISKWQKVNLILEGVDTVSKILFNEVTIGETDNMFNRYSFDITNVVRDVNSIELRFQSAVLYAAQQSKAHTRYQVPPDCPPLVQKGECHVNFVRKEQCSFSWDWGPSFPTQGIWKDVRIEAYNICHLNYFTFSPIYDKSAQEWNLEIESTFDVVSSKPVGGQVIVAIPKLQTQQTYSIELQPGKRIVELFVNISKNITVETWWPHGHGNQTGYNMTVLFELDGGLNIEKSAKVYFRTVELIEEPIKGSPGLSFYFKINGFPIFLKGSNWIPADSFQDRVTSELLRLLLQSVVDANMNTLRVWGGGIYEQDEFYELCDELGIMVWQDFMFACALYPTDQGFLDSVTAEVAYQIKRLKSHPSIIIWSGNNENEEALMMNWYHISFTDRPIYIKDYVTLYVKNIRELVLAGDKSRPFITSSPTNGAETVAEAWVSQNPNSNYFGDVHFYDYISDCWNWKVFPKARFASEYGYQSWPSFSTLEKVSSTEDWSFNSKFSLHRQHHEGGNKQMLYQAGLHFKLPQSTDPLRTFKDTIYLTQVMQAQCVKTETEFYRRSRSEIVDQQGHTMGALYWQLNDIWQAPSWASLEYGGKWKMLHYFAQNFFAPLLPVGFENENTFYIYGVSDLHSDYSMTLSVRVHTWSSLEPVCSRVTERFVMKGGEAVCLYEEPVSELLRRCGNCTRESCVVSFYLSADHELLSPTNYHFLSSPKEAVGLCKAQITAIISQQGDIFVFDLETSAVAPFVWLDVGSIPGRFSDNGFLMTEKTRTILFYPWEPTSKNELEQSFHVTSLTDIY
Type: biochemical
Method: In order to avoid undesired inhibitory side effects of a potential new drug, it has to be selective for a given target. The selectivity of the newly synthesized compounds 14, 15, and 33·HCl toward GCase was then investigated, evaluating their inhibition at 1 mM concentration toward six other lysosomal glycosidases (namely, α-and β-mannosidases, α- and β-galactosidases, α-fucosidase, and α-glucosidase) in cell homogenates (leucocytes or lymphocytes) isolated from healthy donors. […] Indeed, only moderate inhibitory activity (ca. 50%) was found toward human β-galactosidase for both piperidines 14 and 15, while negligible inhibitory activity was detected in all other cases.
(§1) The effect of 1 mM concentration of 14, 15, and 33·HCl was assayed toward six lysosomal glycosidases other than GCase, namely, α-mannosidase, β-mannosidase, α-galactosidase, β-galactosidase, α-fucosidase from leukocytes isolated from healthy donors (controls) and α-glucosidase from lymphocytes isolated from healthy donors’ flesh blood (controls). Isolated leukocytes or lymphocytes were disrupted by sonication, and a micro BCA protein assay kit (Sigma-Aldrich) was used to determine the total protein amount for the enzymatic assay, according to the manufacturer’s instructions (for more details, see the Supporting Information section).
Selectivity of compounds 14, 15 and 33.HCl towards lysosomal enzymes.
as §1, with “15” for “15,”, “33.HCl” for “33·HCl”, “towards” for “toward”, “namely:” for “namely,”, “(Sigma–Aldrich)” for “(Sigma-Aldrich)”, “manufacturer instructions. […]” for “manufacturer’s instructions (for more details, see the Supporting Information section).”
Molecular Devices). Inhibition is given with respect to the control (without azasugar). Data are mean SD (n=3). […]
Inhibition is given with respect to the control (without azasugar). Data are mean SD (n=3). […]
(1 picture or pasted object on this page, not shown here) […]
α-Fucosidase activity was measured in a flat -bottomed 96 -well plate. Azasugar solution (3 μL), 4.29 μg/μL leukocytes homogenate 1:3 (7 μL), and substrate 4 -methylumbe lliferyl α-L-fucopyranoside (1.51 mM, 20 μL, Sigma –Aldrich) in Na phosphate/citrate buffer (0.2:0.1, M/M, pH 5.5) were incubated at 37 °C for 1 h. […]
Data are mean SD (n=3). S74 […]
α-Glucosidase activity was measured in a flat –bottomed 96 well plate. Azasugar solution (3 µL), 4.29 µg/µL lymphocytes homogenate (7µL) and 20 µL of substrate solution of 4 -methylumbelliferyl -α-D-glucopyranoside (Sigma -Aldrich) in Na a cetate buffer (0.2 M, pH 4.0) were incubated for 1 h at 37 °C. The reaction was stopped by the addition of a solution of sodium carbonate (200 µL; 0.5M, pH 10.7) containing Triton X -100 (0.0025 %), and the fluorescence of 4 -methylumbelliferone released by α-glucosidase activity was measured in […]
respect to the control (without azasugar). Data are means of 3 values. […]
Figure S 48. Activity of a panel of 6 hu man lysosomal glycosidases in the presence of compounds 14, 15 and 33.HCl (1 mM ). The corresponding calculated percentage of inhibition is indicated above each bar.

| SMILES | inhibition at 1000 µM [%] |
| --- | --- |
| CCCCCCCC[C@@H]1[C@@H](O)[C@H](O)[C@H](O)CN1C(CCCCCCC)CCCCCCC.Cl [compound 33·HCl, (2R,3R,4R,5R)-2-Octyl-1-(pentadecan-8-yl)-piperidine-3,4,5-triol Hydrochloride] | 2 |
| CCCCCCCC[C@H]1[C@@H](O)[C@H](O)[C@H](O)CN1CCCCCCCC [compound 14, (2S,3R,4R,5R)-1,2-Dioctylpiperidine-3,4,5-triol] | 0 |
| CCCCCCCC[C@@H]1[C@@H](O)[C@H](O)[C@H](O)CN1CCCCCCCC [compound 15, (2R,3R,4R,5R)-1,2-Dioctylpiperidine-3,4,5-triol] | 1 |
